Measurements from ChEMBL document CHEMBL5303304, “EUbOPEN Chemogenomics Library - IncuCyte” (2023).

What was measured:
Type in all cases: toxicity, cell-based
U2OS = assay: Incucyte cell viability with U2OS; conditions: human, 10 µM, compound concentration 10 uM
HEK-293T = assay: Incucyte cell viability with HEK293T; conditions: human, 10 µM, compound concentration 10 uM
Fibroblast = assay: Incucyte cell viability with human fibroblast; conditions: 10 µM, compound concentration 10 uM
Further: unitless GR value; below 1 slowed growth and below 0 cell loss.

Row | SMILES | Growth Rate (U2OS; 12 h, replicate number 2) | Growth Rate (HEK-293T; 0 h, replicate number 1) | Growth Rate (HEK-293T; 0 h, replicate number 2) | Growth Rate (HEK-293T; 6 h, replicate number 2) | Growth Rate (HEK-293T; 12 h, replicate number 2) | Growth Rate (HEK-293T; 18 h, replicate number 2) | Growth Rate (HEK-293T; 24 h, replicate number 1) | Growth Rate (HEK-293T; 24 h, replicate number 2) | Growth Rate (Fibroblast; 6 h, replicate number 2) | Growth Rate (Fibroblast; 18 h, replicate number 1) | Growth Rate (Fibroblast; 24 h, replicate number 2) | Growth Rate (U2OS; 12 h, replicate number 1) | Growth Rate (U2OS; 18 h, replicate number 1) | Growth Rate (U2OS; 18 h, replicate number 2) | Growth Rate (U2OS; 24 h, replicate number 2) | Growth Rate (HEK-293T; 6 h, replicate number 1) | Growth Rate (HEK-293T; 12 h, replicate number 1) | Growth Rate (HEK-293T; 18 h, replicate number 1) | Growth Rate (Fibroblast; 0 h, replicate number 2) | Growth Rate (Fibroblast; 0 h, replicate number 1) | other results
1 | O=C(O)c1ccnc(N2CC(O)(c3ccc(OCc4c(-c5c(Cl)cccc5Cl)noc4C4CC4)cc3Cl)C2)c1 [CILOFEXOR] | 1 | 0.8 | 0.73 | 0.54 | 0.68 | 0.85 | 0.89 | 1 | -0.03 | 0.87 | 0.8 |  |  |  |  |  |  |  |  |  | 
2 | Cc1cc2c(-c3ccco3)cnc(N[C@H]3CCN(C)C[C@@H]3C(=O)NC3CCCCC3)c2[nH]c1=O [GSK791] |  |  | -0.74 |  |  |  |  |  | 0.72 |  |  | -0.81 |  |  |  |  |  |  |  |  | Growth Rate (U2OS; 0 h, replicate number 1): -0.05; Growth Rate (Fibroblast; 6 h, replicate number 1): 0.66; Growth Rate (Fibroblast; 12 h, replicate number 1): 0.82
3 | COc1ccc2c(O[C@@H]3C[C@H]4C(=O)N[C@]5(C(=O)NS(=O)(=O)C6(C)CC6)CC5/C=C\CCCCC[C@H](NC(=O)c5ccn(C)n5)C(=O)N4C3)cc(OC(C)C)nc2c1C (stereo not given in full) | 0.63 | 1 | 0.49 |  |  |  | 0.9 |  | -0.88 | 0.9 | 0.88 |  | 0.99 | 0.79 | 0.78 | 0.89 | 0.8 | 0.9 | 0.85 |  | Growth Rate (U2OS; 0 h, replicate number 2): -0.46; Growth Rate (U2OS; 6 h, replicate number 2): 0.93; Growth Rate (Fibroblast; 18 h, replicate number 2): 0.84; Growth Rate (Fibroblast; 24 h, replicate number 1): 0.9
4 | C=CC(=O)Nc1cccc(C(=O)Nc2ccc(NC(=O)c3cccc(-c4ccn[nH]4)n3)cc2)c1 |  |  | 0.5 | 0.82 | 0.37 | 0.59 |  | 0.55 |  |  |  |  |  |  | 0.92 | 0.54 |  | 0.81 |  | 0 | Growth Rate (U2OS; 0 h, replicate number 1): -0.99; Growth Rate (U2OS; 0 h, replicate number 2): -0.56; Growth Rate (Fibroblast; 6 h, replicate number 1): -0.7
5 | NC(=O)c1ccc(-c2nc(-c3ccc4c(c3)OCCO4)c(-c3ccccn3)[nH]2)cc1 | 0.94 |  |  | 0.65 | 0.81 | 0.74 | 0.79 | 0.86 | 0.41 |  | 0.74 | 0.58 | 0.55 | 0.86 | 0.75 | 0.37 | 0.76 | 0.8 | -0.85 | -1 | Growth Rate (U2OS; 6 h, replicate number 1): 0.21; Growth Rate (U2OS; 24 h, replicate number 1): 0.5; Growth Rate (Fibroblast; 12 h, replicate number 1): 0.77; Growth Rate (Fibroblast; 12 h, replicate number 2): 0.45; Growth Rate (Fibroblast; 18 h, replicate number 2): 0.63
6 | C=CC(=O)Nc1cccc(C(=O)Nc2ccc(Nc3cc(-c4c(-c5ccc(F)cc5)nc(SC)n4C)ccn3)cc2)c1 |  |  |  | 0.39 | 0.34 | 0.46 | 0.57 |  |  |  |  |  |  |  | 0.97 | 0.54 | 0.55 | 0.47 | 0.71 | -0.95 | 
7 | CCc1ccccc1C(=O)Nc1n[nH]c2c(C)c(F)c(C3C(C#N)=C(C)N(C)C(C)=C3C#N)cc12 [BAY-3827] | 0.66 | 0.25 | -0.99 | 0.11 | 0.34 | 0.66 |  | 0.71 |  |  |  | 0.96 | 0.9 | 0.62 | 0.57 |  |  | 0.99 | -0.1 | 0.47 | Growth Rate (U2OS; 6 h, replicate number 2): 0.51; Growth Rate (U2OS; 24 h, replicate number 1): 0.9
8 | Cc1cc(-c2nncc3c(C(C)(C)C)c(OCc4ncnn4C)nn23)no1 | 0.67 |  | 0.72 | 0.78 | 0.53 | 0.57 | 0.14 | 0.61 | -0.97 | 0.1 | 0.87 |  | 0.82 | 0.71 | 0.86 | 0.14 | 0.35 | 0.1 |  | -0.5 | Growth Rate (U2OS; 0 h, replicate number 2): -0.99; Growth Rate (U2OS; 6 h, replicate number 1): 0.85; Growth Rate (U2OS; 6 h, replicate number 2): 0.23; Growth Rate (U2OS; 24 h, replicate number 1): 0.93; Growth Rate (Fibroblast; 6 h, replicate number 1): 1; Growth Rate (Fibroblast; 12 h, replicate number 2): 0.98; Growth Rate (Fibroblast; 18 h, replicate number 2): 0.78; Growth Rate (Fibroblast; 24 h, replicate number 1): 0.26
